Data taken from patent publication US9663508B2, “Biaryl acyl-sulfonamide compounds as sodium channel inhibitors” (AMGEN INC., priority 2013, dated 2017).

The compounds below were run against human Nav1.7 (Homo sapiens (Human), UniProt Q15858) (assay: Nav 1.7 in vitro PatchXpress (PX) assay). Conditions: not given.
Chain of human Nav1.7 (Q15858 whole entry): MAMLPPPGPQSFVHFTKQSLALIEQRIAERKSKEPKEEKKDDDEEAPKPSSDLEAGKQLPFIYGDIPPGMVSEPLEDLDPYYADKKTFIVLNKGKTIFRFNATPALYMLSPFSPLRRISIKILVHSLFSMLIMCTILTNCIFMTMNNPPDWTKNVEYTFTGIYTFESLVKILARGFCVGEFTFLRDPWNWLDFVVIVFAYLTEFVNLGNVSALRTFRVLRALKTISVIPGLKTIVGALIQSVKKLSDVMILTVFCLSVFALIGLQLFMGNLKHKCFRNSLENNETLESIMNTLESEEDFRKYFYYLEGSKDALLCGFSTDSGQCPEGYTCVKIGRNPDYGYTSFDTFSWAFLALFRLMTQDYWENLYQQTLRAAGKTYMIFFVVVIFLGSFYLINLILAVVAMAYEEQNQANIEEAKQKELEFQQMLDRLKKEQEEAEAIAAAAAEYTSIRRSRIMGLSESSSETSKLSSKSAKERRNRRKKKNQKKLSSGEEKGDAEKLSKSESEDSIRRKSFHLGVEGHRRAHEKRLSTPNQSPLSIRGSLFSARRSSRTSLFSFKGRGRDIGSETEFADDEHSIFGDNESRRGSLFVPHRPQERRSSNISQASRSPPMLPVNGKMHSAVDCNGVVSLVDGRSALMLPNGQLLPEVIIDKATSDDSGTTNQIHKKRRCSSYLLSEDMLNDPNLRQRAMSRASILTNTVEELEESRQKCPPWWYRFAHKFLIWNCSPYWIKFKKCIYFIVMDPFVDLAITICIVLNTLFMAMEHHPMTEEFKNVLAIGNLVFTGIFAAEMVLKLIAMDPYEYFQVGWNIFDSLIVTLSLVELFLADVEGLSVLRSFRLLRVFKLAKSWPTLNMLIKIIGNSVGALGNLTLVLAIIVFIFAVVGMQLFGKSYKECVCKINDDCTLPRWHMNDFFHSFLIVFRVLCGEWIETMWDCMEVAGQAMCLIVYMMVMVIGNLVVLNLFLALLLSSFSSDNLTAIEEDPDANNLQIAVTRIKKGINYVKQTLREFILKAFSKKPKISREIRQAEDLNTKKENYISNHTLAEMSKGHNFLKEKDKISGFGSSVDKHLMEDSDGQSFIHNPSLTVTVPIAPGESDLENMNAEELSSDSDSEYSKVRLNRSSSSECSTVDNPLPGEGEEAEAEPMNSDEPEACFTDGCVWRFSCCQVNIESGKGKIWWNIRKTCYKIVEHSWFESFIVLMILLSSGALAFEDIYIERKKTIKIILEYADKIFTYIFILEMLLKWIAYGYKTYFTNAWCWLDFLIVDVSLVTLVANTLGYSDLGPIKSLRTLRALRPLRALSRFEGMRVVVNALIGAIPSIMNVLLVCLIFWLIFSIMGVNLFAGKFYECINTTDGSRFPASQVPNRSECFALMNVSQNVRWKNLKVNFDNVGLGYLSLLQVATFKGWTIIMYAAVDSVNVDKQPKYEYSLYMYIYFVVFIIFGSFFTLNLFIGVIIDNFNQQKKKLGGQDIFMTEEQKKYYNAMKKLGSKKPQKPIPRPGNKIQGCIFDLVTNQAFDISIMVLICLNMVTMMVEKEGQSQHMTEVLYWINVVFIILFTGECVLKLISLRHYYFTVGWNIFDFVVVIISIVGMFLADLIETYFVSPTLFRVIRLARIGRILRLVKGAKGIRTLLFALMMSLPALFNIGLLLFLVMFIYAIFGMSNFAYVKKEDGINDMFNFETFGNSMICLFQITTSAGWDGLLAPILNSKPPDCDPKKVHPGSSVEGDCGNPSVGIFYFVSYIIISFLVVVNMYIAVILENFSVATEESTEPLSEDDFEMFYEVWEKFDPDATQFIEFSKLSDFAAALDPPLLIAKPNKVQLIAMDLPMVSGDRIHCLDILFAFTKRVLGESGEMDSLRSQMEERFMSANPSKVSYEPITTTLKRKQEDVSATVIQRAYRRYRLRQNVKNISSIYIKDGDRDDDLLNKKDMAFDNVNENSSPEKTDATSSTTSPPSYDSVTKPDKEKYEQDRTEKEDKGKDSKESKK
Assay type: cell-based
Compound `CS(=O)(=O)NC(=O)c1ccc(-c2cnc(Oc3cc(Cl)cc(Cl)c3)c(Cl)c2)c(OC(F)F)c1` [Example 461, 4-(5-chloro-6-(3,5-dichlorophenoxy)-3-pyridinyl)-3-(difluoromethoxy)-N-(methylsulfonyl)benzamide] has an IC50 of 0.0337 µM. With `CC1(Oc2ncc(-c3cc(F)c(C(=O)NS(C)(=O)=O)cc3Cl)cc2Cl)CCC1` [Example 602, 5-chloro-4-(5-chloro-6-((1-methylcyclobutyl)oxy)-3-pyridinyl)-2-fluoro-N-(methylsulfonyl)benzamide] the IC50 was 0.1 µM. Work on `Cc1ccc(Cl)c(Oc2ncc(-c3ccc(C(=O)NS(C)(=O)=O)cc3OC(F)F)cc2Cl)c1` [Example 462, 4-(5-chloro-6-(2-chloro-5-methylphenoxy)-3-pyridinyl)-3-(difluoromethoxy)-N-(methylsulfonyl)benzamide] yielded an IC50 of 0.0683 µM.

Same assay, conditions: in-vitro Nav 1.7 PX data
Compound `Cc1cc(C(=O)NS(C)(=O)=O)c(F)cc1-c1cnc(-c2ccc(Cl)c(Cl)c2)c(Cl)c1` [Example 835, 4-(5-chloro-6-(3,4-dichlorophenyl)-3-pyridinyl)-2-fluoro-5-methyl-N-(methylsulfonyl)benzamide] has an IC50 of 0.167 µM. In the case of `CC[C@@H](Oc1ncc(-c2cc(F)c(C(=O)NS(C)(=O)=O)cc2OC)cc1Cl)C(F)(F)F` [Example 736, 4-(5-chloro-6-(((1R)-1-(trifluoromethyl)propyl)oxy)-3-pyridinyl)-2-fluoro-5-methoxy-N-(methylsulfonyl)benzamide], the IC50 is reported as 0.084 µM. Compound `COc1cc(C(=O)NS(C)(=O)=O)c(F)cc1-c1cnc(Oc2cc(Cl)c(Cl)cc2Cl)c(Cl)c1` [Example 739, 4-(5-chloro-6-(2,4,5-trichlorophenoxy)-3-pyridinyl)-2-fluoro-5-methoxy-N-(methylsulfonyl)benzamide] has an IC50 of 0.051 µM. For `COc1cc(C(=O)NS(C)(=O)=O)c(F)cc1-c1cnc(O[C@H](C)c2ccc(F)cc2Cl)c(Cl)c1` [Example 761, 4-(5-chloro-6-((1R)-1-(2-chloro-4-fluorophenyl)ethoxy)-3-pyridinyl)-2-fluoro-5-methoxy-N-(methylsulfonyl)benzamide], the IC50 was 0.0821 µM. Compound `COc1cc(C(=O)NS(C)(=O)=O)c(F)cc1-c1cnc(Oc2ccc(C)c(Cl)c2)c(Cl)c1` [Example 751, 4-(5-chloro-6-(3-chloro-4-methylphenoxy)-3-pyridinyl)-2-fluoro-5-methoxy-N-(methylsulfonyl)benzamide] has an IC50 of 0.0983 µM. With `COc1cc(C(=O)NS(C)(=O)=O)c(F)cc1-c1cnc(Oc2c(Cl)ccc(C)c2F)c(Cl)c1` [Example 762, 4-(5-chloro-6-(6-chloro-2-fluoro-3-methylphenoxy)-3-pyridinyl)-2-fluoro-5-methoxy-N-(methylsulfonyl)benzamide] the IC50 was 0.0752 µM. Work on `COc1cc(C(=O)NS(C)(=O)=O)c(F)cc1-c1cnc(O[C@H]2C[C@H](C)C2)c(Cl)c1` [Example 735, 4-(5-chloro-6-((trans-3-methylcyclobutyl)oxy)-3-pyridinyl)-2-fluoro-5-methoxy-N-(methylsulfonyl)benzamide] yielded an IC50 of 0.0591 µM. Compound `COc1cccc(CSc2ncc(-c3cc(F)c(C(=O)NS(C)(=O)=O)cc3C)cc2Cl)c1` [Example 818, 4-(5-Chloro-6-((3-Methoxybenzyl)Thio)-Pyridin-3-yl)-2-Fluoro-5-Methyl-N-(Methylsulfonyl)Benzamide] has an IC50 of 0.169 µM. `COc1cc(C(=O)NS(C)(=O)=O)c(F)cc1-c1cnc(O[C@@H](C)CC(C)C)c(Cl)c1` [Example 726, 4-(5-chloro-6-(((1S)-1,3-dimethylbutyl)oxy)-3-pyridinyl)-2-fluoro-5-methoxy-N-(methylsulfonyl)benzamide] showed an IC50 of 0.0805 µM. `COc1cc(C(=O)NS(C)(=O)=O)c(F)cc1-c1cnc(Oc2cc(F)cc(F)c2)c(Cl)c1` [Example 740, 4-(5-chloro-6-(3,5-difluorophenoxy)-3-pyridinyl)-2-fluoro-5-methoxy-N-(methylsulfonyl)benzamide] gave an IC50 of 0.087 µM. `COc1cc(C(=O)NS(C)(=O)=O)c(F)cc1-c1cnc(Oc2ccc(C)c(F)c2F)c(Cl)c1` [Example 746, 4-(5-chloro-6-(2,3-difluoro-4-methylphenoxy)-3-pyridinyl)-2-fluoro-5-methoxy-N-(methylsulfonyl)benzamide] showed an IC50 of 0.0628 µM.
